Active and inactive are the calls of the source. The rule behind the calls is not given here.
Key:
[1] = Inhibition of sweet almond beta-glucosidase assessed as enzymatic hydrolysis of 2-chloro-4-nitrophenyl beta-D-glucopyranoside preincubated with substrate for 20 mins followed by protein addition by UV-visible spectroscopy; design: species or system Prunus dulcis
[2] = Inhibition of sweet almond beta-glucosidase assessed as enzyme mediated hydrolysis of 2-chloro-4-nitrophenyl beta-D-glucopyranoside preincubated with substrate for 30 mins followed by protein addition measured every 10 secs for 10 mins by UV-visible spectroscopy; design: species or system Prunus dulcis
[3] = system: Prunus dulcis; assay: Competitive inhibition of sweet almond beta-glucosidase assessed as enzymatic hydrolysis of 2-chloro-4-nitrophenyl beta-D-glucopyranoside at 0.0125 and 0.025 uM by Lineweaver-Burk plot
[4] = system: Prunus dulcis; assay: Competitive inhibition of sweet almond beta-glucosidase assessed as enzymatic hydrolysis of 2-chloro-4-nitrophenyl beta-D-glucopyranoside at 200 and 1200 uM by Lineweaver-Burk plot

Row | Structure (SMILES) | IC50 [1] [µM] | Ki [2] [µM] | inhibition [3] | inhibition [4]
1 | OC[C@H]1N/C(=N\C2CC2)[C@H](O)[C@@H](O)[C@H]1O | 32 | 11.8 |  | 
2 | OC[C@H]1N/C(=N\CC2CC2)[C@H](O)[C@@H](O)[C@H]1O | 19 | 11.5 |  | 
3 | Cc1ccccc1C/N=C1\N[C@H](CO)[C@H](O)[C@H](O)[C@H]1O | 8.4 | 26.2 |  | 
4 | Cc1ccc(CNC2=N[C@H](CO)[C@@H](O)[C@@H]2O)cc1 | 6200 | 970 | Active | Active
5 | COc1ccc(C/N=C2\N[C@H](CO)[C@H](O)[C@H](O)[C@H]2O)cc1 | 13 | 55.9 |  | 
6 | CO[C@H]1C(NCc2ccc(C)cc2)=N[C@H](CO)[C@H](O)[C@@H]1O | > 5000 | 5 |  | 
7 | N=C1N[C@H](CO)[C@H](O)[C@H](O)[C@H]1O | > 1000 |  |  | 
8 | Cc1cccc(C/N=C2\N[C@H](CO)[C@H](O)[C@H](O)[C@H]2O)c1 | 5.1 | 293 |  | 
9 | O=C1N[C@H](CO)[C@H](O)[C@H](O)[C@H]1O | > 1000 |  |  | 
10 | CO[C@@H]1[C@H](O)[C@@H](O)C(NCc2ccc(C)cc2)=N[C@@H]1CO | > 5000 | 13 |  | 
11 | OC[C@H]1N/C(=N\Cc2cccc(F)c2)[C@H](O)[C@@H](O)[C@H]1O | 11 | 124 |  | 
12 | Cc1ccc(CNC2=N[C@H](CO)[C@H](O)[C@H](O)C2)cc1 | > 5000 | 7.7 |  | 
13 | OC[C@H]1N/C(=N\C2CCCCC2)[C@H](O)[C@@H](O)[C@H]1O | > 5000 |  |  | 

The remaining lines, values ahead:

Row | IC50 [1] [µM] | Ki [2] [µM] | inhibition [3] | inhibition [4] | Structure (SMILES)
14 | 3 | 0.026 | Active | Active | Cc1ccc(C/N=C2\N[C@H](CO)[C@H](O)[C@H](O)[C@H]2O)cc1
15 | 2.2 | 29.6 |  |  | CCCCCCC/N=C1\N[C@H](CO)[C@H](O)[C@H](O)[C@H]1O
16 | 2.8 | 87.9 |  |  | OC[C@H]1N/C(=N\Cc2ccc(C(F)(F)F)cc2)[C@H](O)[C@@H](O)[C@H]1O
17 | 5 | 27.1 |  |  | OC[C@H]1N/C(=N\CC2CCCCCC2)[C@H](O)[C@@H](O)[C@H]1O
18 | 2.3 | 14.7 |  |  | CC(C)(C)c1ccc(C/N=C2\N[C@H](CO)[C@H](O)[C@H](O)[C@H]2O)cc1
19 | 2.8 | 108 |  |  | OC[C@H]1N/C(=N\Cc2ccccc2)[C@H](O)[C@@H](O)[C@H]1O
20 | 1.8 | 118 |  |  | OC[C@H]1N/C(=N\Cc2ccccc2F)[C@H](O)[C@@H](O)[C@H]1O
21 | 0.4 | 20.5 |  |  | CCCCCCCCCCCC/N=C1\N[C@H](CO)[C@H](O)[C@H](O)[C@H]1O
22 | 2.5 | 17.2 |  |  | CCCCC(CC)CNC1=N[C@H](CO)[C@H](O)[C@H](O)[C@H]1O (stereo partly drawn)
23 | 1.6 | 49.2 |  |  | OC[C@H]1N/C(=N\CC2CCCCC2)[C@H](O)[C@@H](O)[C@H]1O
24 | 4.8 | 18.7 |  |  | CCC/N=C1\N[C@H](CO)[C@H](O)[C@H](O)[C@H]1O
25 | 1.3 | 28.1 |  |  | OC[C@H]1N/C(=N\CCCc2ccccc2)[C@H](O)[C@@H](O)[C@H]1O
26 | 4.7 | 57.5 |  |  | OC[C@H]1N/C(=N\Cc2ccc(F)cc2)[C@H](O)[C@@H](O)[C@H]1O

Source: ChEMBL document CHEMBL3813652, “Arabinoamidine synthesis and its inhibition toward β-glucosidase (sweet almonds) in comparison to a library of galactonoamidines” (Bioorg Med Chem, 2016)
